Several values for one entry are separate records, joined by “and”; a condition that tells them apart may be missing. Identical values can stand only once.
Key:
hippocampal neurons = test: Whole-cell recordings of AMPA-mediated mEPSCs; format: cell-based, rat; details: HGF 10 ng/ml, 5 days (Example 2)
CA1 hippocampal neurons = test: Spinogenesis in organotypic hippocampal slice cultures; format: cell-based, rat; details: HGF 10 ng/ml, 48 hours, organotypic slices
Description: (§1) Hippocampi from P4 Sprague Dawley rats were cultured as previously described (Wayman, Impey et al. 2006). Briefly, 400 μm slices were cultured on (Milipore, Billerica, Mass.) for 3 days after which they were biolistically transfected with tomato fluorescent protein (TFP) using a Helios Gen Gun (BioRad, Hercules, Calif.), according to the manufacturer's protocol, to visualize dendritic arbors. Following a 24 hour recovery period slices were stimulated with vehicle (H2O), 1 pM Nle1-AngIV or Dihexa for 2 days. Slices were fixed and mounted. Hippocampal CA1 neuronal processes were imaged and measured as described above.
as §1, with “Gene” for “Gen”, “with” for “with vehicle (H2O),”

c-Met receptor [1] = test: c-Met phosphorylation in acute adult rat hippocampal slices; format: cell-based; details: 30 minutes
Text: Adult Sprague-Dawley rats (250 g+) obtained from Harlan Laboratories (Ca, USA) were anesthetized with isofluorane (Vet One™, MWI, Meridian, Id., USA) and decapitated. The brain was rapidly removed and placed into ice-chilled artificial cerebrospinal fluid (aCSF) for approximately 30 s. Both hemispheres were separated by a mid-saggital cut and both hippocampi removed. Slices were sectioned cross- and length-wise (400 μm) to ensure penetrability of the drug, using a McIlwain tissue chopper (Brinkmann, Gomshall, UK) and transferred to a gassed (95% O2/5% CO2) incubation chamber containing aCSF for 90 minutes at room temperature. […]
Protein concentration of the samples was quantified using the BCA method (Pierce, Rockford, Ill.) following the manufacturers protocol. […]

c-Met receptor [2] = target: T1, c-Met receptor (Rattus norvegicus, UniProt P97523); test: Effect of c-Met knock-down (shMet) on spinogenesis in hippocampal neurons; format: cell-based; details: HGF 10 ng/ml, 48 hours
T1 construct: Dissociated hippocampal neurons were transfected with mRFP-β-actin and shMet RNA; endogenous in cells; host or cells: dissociated hippocampal neurons from P1-2 Sprague Dawley rats
T1 sequence (P17945 33-495 partner limits assumed): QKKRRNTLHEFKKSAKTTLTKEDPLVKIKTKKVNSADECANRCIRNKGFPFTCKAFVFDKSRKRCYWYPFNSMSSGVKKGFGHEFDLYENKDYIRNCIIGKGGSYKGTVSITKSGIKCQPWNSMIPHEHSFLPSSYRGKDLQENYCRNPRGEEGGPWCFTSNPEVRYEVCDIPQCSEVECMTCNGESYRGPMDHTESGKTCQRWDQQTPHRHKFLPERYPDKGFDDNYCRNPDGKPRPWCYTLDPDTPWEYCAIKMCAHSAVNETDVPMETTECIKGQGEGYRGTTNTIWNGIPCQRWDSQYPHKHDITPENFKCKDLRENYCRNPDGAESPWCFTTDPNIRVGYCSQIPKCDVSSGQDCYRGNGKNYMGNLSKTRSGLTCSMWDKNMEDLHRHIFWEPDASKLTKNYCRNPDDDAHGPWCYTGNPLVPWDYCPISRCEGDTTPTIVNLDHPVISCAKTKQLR
T1 sequence (P17945 496-728 partner limits assumed): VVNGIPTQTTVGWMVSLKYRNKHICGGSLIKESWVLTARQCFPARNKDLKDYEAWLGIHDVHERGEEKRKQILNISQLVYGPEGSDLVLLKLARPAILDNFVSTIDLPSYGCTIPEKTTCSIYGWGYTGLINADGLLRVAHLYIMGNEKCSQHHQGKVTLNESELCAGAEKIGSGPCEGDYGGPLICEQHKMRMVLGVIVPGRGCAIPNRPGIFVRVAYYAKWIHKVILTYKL
T1 sequence (P97523 25-1382): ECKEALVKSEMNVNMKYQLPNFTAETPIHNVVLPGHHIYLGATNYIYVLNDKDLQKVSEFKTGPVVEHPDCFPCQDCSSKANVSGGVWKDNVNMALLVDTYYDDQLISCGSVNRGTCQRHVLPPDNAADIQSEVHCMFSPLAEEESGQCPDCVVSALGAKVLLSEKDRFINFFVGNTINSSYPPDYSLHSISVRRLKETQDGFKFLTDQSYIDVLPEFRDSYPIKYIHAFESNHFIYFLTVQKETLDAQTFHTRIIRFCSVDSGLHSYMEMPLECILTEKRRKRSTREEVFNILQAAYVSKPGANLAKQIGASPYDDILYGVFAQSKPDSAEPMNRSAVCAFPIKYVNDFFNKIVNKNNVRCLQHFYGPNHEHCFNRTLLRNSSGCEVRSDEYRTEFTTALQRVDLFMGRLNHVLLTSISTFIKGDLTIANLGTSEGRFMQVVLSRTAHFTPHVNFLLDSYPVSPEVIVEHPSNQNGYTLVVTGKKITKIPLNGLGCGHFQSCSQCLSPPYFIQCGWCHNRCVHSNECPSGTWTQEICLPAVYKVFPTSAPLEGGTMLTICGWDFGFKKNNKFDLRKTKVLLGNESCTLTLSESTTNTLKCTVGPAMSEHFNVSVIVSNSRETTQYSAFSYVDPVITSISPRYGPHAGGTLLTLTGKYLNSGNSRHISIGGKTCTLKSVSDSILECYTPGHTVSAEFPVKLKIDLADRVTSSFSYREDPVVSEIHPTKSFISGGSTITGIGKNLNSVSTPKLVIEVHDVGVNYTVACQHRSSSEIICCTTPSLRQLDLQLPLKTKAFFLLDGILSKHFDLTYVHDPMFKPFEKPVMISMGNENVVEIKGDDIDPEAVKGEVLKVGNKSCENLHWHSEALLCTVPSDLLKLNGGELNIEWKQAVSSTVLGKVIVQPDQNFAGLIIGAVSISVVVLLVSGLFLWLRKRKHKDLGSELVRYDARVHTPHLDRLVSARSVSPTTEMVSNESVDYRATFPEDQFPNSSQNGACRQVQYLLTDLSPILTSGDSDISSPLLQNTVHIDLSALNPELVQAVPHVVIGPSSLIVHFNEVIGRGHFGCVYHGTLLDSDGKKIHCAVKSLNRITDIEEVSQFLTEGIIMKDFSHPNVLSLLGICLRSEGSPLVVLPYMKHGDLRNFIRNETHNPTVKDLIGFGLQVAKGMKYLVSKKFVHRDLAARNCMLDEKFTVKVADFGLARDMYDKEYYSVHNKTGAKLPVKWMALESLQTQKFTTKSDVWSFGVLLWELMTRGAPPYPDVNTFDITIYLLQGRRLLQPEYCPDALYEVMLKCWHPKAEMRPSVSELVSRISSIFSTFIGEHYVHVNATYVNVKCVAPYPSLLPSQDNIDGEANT
Text: Neurons were transfected with mRFP-β-actin on day in vitro 6 (DIV6) using LipofectAMINE™ 2000 (Invitrogen) according to the manufacturer's protocol. This protocol yielded the desired 3-5% transfection efficiency thus enabling the visualization of individual neurons. Higher efficiencies obscured the dendritic arbor of individual neurons. Expression of fluorescently tagged actin allowed clear visualization of dendritic spines, as dendritic spines are enriched in actin. On DIV7 the cells were treated with vehicle (H20) or peptides (as described in the text) added to media. On DIV 12 the neurons were fixed (4% paraformaldehyde, 3% sucrose, 60 mM PIPES, 25 mM HEPES, 5 mM EGTA, 1 mM MgCl2, pH 7.4) for 20 min at room temperature and mounted. Slides were dried for at least 20 hours at 4° C. and fluorescent images were obtained with Slidebook 4.2 Digital Microscopy Software driving an Olympus IX81 inverted confocal microscope with a 60× oil immersion lens, NA 1.4 and resolution 0.280 μm Dendritic spine density was measured on primary and secondary dendrites at a distance of at least 150 μm from the soma. Five 50 μm long segments of dendrite from at least 10 neurons per data point were analyzed for each data point reported. Each experiment was repeated at least three times using independent culture preparations. Dendrite length was determined using the National Institutes of Health's Image J 1.41o program (NIH, Bethesda, Md.) and the neurite tracing program Neuron J (Meijering, Jacob et al. 2004) Spines were manually counted.
A target sequence for c-Met was designed using RNAi central design program (see the website located at cancan.cshl.edu/). […]. The shRNA was transfected into cells using the lipofectamine method described above. Verification of receptor knockdown was done by creating a c-Met-6-Myc tagged gene product using the Gateway cloning system (Invitrogen). […]

HGF: carrier free adult recombinant Hepatocyte Growth Factor (R and D Systems)
mean frequency of mEPSCs (hippocampal neurons): 7.09±0.53 and 9.66±0.20 | number of spines per 50 μm dendrite length, CA1 neurons (CA1 hippocampal neurons): 18.5 | c-Met phosphorylation vs control (aCSF) slices (c-Met receptor [1]; HGF 50 ng/ml (non-saturating)): not statistically different from control treated slices | c-Met phosphorylation vs control (aCSF) slices (c-Met receptor [1]; HGF 100 ng/ml (saturating)): increased c-Met phosphorylation | mean spine numbers per 50 μm dendrite length (c-Met receptor [2]; neurons transfected with mRFP-β-actin alone): 20.6 | mean spine numbers per 50 μm dendrite length (c-Met receptor [2]; neurons transfected with mRFP-β-actin and shMet): 12.4

From US8598118B2, “Hepatocyte growth factor mimics as therapeutic agents” (Washington State University, priority 2011, dated 2013)
